Key:
[1] = Metabolic stability in human liver microsomes assessed as half life incubated for 10 mins measured up to 60 mins in presence of NADPH by LC-MS/MS analysis; format: ADME, Microsome
[2] = target: Histone-lysine N-methyltransferase 2A (Homo sapiens, UniProt Q03164); assay: Inhibition of MLL1 (unknown origin) using peptide substrate preincubated for 10 mins followed by substrate addition for 4 hrs by HTRF assay
[3] = target: Histone-lysine N-methyltransferase 2B (Homo sapiens, UniProt Q9UMN6); assay: Inhibition of MLL4 (unknown origin) using peptide substrate preincubated for 10 mins followed by substrate addition for 4 hrs by HTRF assay
Sequence of Histone-lysine N-methyltransferase 2B (Q9UMN6 whole entry, the tested form may be a part): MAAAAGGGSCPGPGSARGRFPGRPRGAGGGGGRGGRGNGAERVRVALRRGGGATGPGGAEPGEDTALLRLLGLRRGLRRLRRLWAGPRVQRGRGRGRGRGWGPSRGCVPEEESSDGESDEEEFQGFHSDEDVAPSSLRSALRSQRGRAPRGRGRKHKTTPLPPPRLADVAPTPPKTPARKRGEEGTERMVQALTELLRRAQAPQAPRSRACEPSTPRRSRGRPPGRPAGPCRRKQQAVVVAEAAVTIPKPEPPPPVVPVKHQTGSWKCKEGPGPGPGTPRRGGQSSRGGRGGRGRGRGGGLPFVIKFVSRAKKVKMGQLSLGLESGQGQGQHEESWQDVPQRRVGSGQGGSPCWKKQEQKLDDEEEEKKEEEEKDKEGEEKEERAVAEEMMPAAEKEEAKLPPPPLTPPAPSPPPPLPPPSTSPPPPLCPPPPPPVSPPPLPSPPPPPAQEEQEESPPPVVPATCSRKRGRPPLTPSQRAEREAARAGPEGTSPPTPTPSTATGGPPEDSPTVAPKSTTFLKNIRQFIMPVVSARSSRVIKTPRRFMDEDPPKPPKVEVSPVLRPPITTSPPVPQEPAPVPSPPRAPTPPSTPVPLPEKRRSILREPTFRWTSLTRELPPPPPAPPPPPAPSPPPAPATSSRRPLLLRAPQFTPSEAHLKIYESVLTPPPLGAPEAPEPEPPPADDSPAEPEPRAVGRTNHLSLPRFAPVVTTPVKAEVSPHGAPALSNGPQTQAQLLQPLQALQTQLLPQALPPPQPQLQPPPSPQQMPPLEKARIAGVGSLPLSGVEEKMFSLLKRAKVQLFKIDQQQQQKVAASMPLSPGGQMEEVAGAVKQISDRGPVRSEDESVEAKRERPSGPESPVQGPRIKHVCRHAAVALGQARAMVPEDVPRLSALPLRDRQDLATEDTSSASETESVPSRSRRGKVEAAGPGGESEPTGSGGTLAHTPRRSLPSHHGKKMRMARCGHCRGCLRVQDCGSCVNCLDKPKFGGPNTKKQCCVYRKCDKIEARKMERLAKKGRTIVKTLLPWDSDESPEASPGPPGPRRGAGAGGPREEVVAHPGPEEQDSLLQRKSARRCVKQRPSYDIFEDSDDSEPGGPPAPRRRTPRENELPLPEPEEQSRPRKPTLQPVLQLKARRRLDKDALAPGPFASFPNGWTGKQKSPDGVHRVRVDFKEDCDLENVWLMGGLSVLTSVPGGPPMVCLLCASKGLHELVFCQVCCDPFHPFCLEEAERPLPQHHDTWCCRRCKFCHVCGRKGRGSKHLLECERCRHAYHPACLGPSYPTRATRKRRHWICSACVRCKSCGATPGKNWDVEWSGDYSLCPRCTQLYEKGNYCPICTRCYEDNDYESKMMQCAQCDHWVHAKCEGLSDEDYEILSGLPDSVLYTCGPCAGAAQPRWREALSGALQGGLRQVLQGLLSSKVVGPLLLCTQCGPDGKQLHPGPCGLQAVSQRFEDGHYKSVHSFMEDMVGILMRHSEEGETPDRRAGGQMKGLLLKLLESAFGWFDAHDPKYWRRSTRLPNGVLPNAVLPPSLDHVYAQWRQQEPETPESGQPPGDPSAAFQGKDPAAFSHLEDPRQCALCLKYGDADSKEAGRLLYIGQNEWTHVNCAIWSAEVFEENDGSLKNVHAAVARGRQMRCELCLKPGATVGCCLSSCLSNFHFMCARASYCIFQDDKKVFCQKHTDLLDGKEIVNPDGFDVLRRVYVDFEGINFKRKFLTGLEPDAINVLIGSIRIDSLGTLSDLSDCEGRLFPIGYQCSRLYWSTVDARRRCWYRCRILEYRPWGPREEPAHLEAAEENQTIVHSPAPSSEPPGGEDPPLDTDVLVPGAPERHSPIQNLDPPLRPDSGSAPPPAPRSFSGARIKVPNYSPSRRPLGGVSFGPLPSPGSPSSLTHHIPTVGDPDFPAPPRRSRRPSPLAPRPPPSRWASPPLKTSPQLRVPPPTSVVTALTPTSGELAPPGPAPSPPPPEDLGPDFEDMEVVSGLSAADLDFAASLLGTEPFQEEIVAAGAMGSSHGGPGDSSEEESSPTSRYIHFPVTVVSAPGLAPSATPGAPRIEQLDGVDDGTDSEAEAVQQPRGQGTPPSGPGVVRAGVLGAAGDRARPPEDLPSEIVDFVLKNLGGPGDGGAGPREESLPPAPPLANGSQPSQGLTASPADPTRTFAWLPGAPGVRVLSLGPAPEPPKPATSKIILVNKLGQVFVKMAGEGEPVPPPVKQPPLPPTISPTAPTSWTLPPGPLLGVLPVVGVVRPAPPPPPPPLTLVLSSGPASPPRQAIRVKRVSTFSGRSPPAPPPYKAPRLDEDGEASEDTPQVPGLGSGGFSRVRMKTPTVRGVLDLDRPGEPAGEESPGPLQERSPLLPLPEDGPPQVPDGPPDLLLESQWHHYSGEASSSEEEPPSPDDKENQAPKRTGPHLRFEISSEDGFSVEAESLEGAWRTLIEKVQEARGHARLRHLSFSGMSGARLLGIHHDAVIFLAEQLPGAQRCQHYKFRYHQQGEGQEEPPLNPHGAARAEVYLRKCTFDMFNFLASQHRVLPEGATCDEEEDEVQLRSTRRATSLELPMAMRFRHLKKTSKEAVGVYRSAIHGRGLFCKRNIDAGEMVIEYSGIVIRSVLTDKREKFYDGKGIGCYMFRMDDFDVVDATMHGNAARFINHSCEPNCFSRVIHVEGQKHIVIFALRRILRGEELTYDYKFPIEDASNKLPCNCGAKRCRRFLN

[4] = target: Protein arginine N-methyltransferase 5 (Homo sapiens, UniProt O14744); assay: Inhibition of PRMT5 (unknown origin) using histone H4 (1 to 21 residues) peptide/SAM as substrate incubated for 210 mins in presence of SAM by AlphaLISA assay
Sequence of Protein arginine N-methyltransferase 5 (O14744 whole entry, the tested form may be a part): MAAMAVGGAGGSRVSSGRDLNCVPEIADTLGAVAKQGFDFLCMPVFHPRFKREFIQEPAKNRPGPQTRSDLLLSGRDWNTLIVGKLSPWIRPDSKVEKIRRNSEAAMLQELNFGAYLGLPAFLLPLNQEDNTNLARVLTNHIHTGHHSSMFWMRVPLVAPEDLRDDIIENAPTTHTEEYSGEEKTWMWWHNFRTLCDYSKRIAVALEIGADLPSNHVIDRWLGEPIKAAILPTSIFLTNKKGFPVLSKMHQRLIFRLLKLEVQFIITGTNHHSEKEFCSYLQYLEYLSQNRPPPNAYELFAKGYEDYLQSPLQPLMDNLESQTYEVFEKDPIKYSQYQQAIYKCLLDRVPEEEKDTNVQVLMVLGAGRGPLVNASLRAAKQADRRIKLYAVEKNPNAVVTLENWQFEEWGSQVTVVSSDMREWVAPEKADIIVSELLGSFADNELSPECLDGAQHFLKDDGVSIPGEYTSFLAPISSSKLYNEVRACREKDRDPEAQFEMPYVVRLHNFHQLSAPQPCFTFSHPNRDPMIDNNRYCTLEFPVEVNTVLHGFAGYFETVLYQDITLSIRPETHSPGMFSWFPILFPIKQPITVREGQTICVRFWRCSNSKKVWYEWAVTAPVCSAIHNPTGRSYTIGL

[5] = target: T1, Histone-lysine N-methyltransferase NSD2 (Homo sapiens, UniProt O96028); assay: Inhibition of NSD2 (unknown origin) using histone H4 (1 to 21 residues) peptide/SAM as substrate incubated for 210 mins in presence of SAM by AlphaLISA assay
T1 sequence (O96028 whole entry): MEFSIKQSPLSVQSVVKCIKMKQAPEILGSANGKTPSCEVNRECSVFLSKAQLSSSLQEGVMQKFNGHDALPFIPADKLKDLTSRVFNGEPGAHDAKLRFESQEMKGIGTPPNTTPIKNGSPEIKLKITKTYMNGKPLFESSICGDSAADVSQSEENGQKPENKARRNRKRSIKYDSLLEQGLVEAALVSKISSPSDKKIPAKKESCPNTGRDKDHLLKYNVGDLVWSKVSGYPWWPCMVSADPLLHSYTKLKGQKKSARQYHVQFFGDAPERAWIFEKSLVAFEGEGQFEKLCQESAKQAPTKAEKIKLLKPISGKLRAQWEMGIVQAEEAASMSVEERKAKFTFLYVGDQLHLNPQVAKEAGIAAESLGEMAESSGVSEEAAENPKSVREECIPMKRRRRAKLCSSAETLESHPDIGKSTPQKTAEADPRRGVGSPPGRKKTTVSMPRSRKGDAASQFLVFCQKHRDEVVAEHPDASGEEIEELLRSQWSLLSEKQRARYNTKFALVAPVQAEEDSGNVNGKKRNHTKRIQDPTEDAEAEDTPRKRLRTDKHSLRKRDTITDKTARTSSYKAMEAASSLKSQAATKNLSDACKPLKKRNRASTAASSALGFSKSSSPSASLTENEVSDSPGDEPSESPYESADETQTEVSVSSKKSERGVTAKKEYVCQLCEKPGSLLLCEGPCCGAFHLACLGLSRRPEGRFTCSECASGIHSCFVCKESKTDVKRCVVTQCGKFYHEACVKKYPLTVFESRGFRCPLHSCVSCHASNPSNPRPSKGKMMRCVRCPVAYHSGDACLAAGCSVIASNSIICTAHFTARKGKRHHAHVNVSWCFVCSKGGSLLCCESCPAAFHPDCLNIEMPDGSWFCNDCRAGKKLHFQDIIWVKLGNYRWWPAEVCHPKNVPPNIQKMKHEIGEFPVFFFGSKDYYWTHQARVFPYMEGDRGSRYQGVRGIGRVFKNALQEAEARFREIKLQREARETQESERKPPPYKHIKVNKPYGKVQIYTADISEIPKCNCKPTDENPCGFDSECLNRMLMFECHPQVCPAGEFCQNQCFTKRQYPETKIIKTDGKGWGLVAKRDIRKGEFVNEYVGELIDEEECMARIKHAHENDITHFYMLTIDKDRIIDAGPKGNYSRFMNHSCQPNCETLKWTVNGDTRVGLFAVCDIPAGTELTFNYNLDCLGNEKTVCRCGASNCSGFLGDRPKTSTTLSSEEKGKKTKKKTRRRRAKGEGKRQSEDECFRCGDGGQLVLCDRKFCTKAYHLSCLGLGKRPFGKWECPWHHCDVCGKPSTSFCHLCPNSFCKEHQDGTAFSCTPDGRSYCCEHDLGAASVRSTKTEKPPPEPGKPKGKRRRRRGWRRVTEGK

A-375 [6] = assay: Induction of apoptosis in human A-375 cells assessed as total apoptotic cells at 0.5 uM incubated for 48 hrs by Annexin-V FITC/PI staining based flow cytometry analysis relative to control; format: functional
A-375 [7] = assay: Induction of apoptosis in human A-375 cells assessed as total apoptotic cells at 1 uM incubated for 48 hrs by Annexin-V FITC/PI staining based flow cytometry analysis relative to control; format: functional
A-375 [8] = assay: Induction of apoptosis in human A-375 cells assessed as total apoptotic cells at 2 uM incubated for 48 hrs by Annexin-V FITC/PI staining based flow cytometry analysis relative to control; format: functional
[9] = Metabolic stability in mouse liver microsomes assessed as half life measured up to 60 mins in presence of NADPH by LC-MS/MS analysis; format: ADME, Microsome
[10] = Metabolic stability in rat liver microsomes assessed as clearance measured up to 60 mins in presence of NADPH by LC-MS/MS analysis; format: ADME, Microsome; conditions: 1 h
[11] = Metabolic stability in mouse liver microsomes assessed as clearance measured up to 60 mins in presence of NADPH by LC-MS/MS analysis; format: ADME, Microsome; conditions: 1 h
[12] = Plasma protein binding in rat by LC-MS/MS analysis; format: ADME, cell-free; conditions: read-out: PPB (converted)
[13] = Plasma protein binding in mouse by LC-MS/MS analysis; format: ADME, cell-free; conditions: read-out: PPB (converted)
[14] = Half life in Sprague-Dawley rat at 3 mg/kg, iv measured for 0.25 to 24 hrs by LC-MS/MS analysis; format: ADME, organism-based; conditions: in vivo, time 0.25-24 hrs
[15] = Half life in Sprague-Dawley rat at 10 mg/kg, po measured for 0.25 to 24 hrs by LC-MS/MS analysis; format: ADME, organism-based; conditions: in vivo, time 0.25-24 hrs
[16] = Cmax in Sprague-Dawley rat at 10 mg/kg, po measured for 0.25 to 24 hrs by LC-MS/MS analysis; format: ADME, organism-based; set-up: time lower 0.25 hrs, dose 10 mg/kg, time upper 24 hrs, route po; conditions: in vivo
[17] = AUC (0 to infinity) in Sprague-Dawley rat at 3 mg/kg, iv measured for 0.25 to 24 hrs by LC-MS/MS analysis; format: ADME, organism-based; set-up: time 0.25-24 hrs, dose 3 mg/kg, route iv; conditions: in vivo
[18] = AUC (0 to infinity) in Sprague-Dawley rat at 10 mg/kg, po measured for 0.25 to 24 hrs by LC-MS/MS analysis; format: ADME, organism-based; set-up: dose 10 mg/kg, time upper 24 hrs, time lower 0.25 hrs, route po; conditions: in vivo
[19] = Volume of distribution at steady state in Sprague-Dawley rat at 3 mg/kg, iv measured for 0.25 to 24 hrs by LC-MS/MS analysis; format: ADME, organism-based; conditions: in vivo, time 0.25-24 hrs, read-out: Vdss
[20] = Oral bioavailability in Sprague-Dawley rat at 10 mg/kg, measured for 0.25 to 24 hrs by LC-MS/MS analysis; format: ADME, organism-based; conditions: in vivo, time 0.25-24 hrs
[21] = Toxicity in BALB/c mouse xenografted with human A375 cells assessed as change in body weight at 75 mg/kg, po qd for 19 days and measured every 3 days; format: organism-based, A-375; conditions: in vivo, 456 h, time 19 day

Molecule `C[C@H](Oc1ccc(-c2cc3c(C4=CCNCC4)ncnc3[nH]2)cc1)c1ccccc1` has a half-life [1] of 0.697 h, an IC50 [2] of over 20 µM and an IC50 [3] of over 20 µM. For the same molecule, the IC50 [4] was 0.047 µM, the IC50 [5] was over 20 µM and the Activity (A-375 [6]) was 5.58%. It also gave an Activity (A-375 [7]) of 14.14%, an Activity (A-375 [8]) of 66.39% and a half-life [9] of 1.14 h. It also gave a CLH [10] of 227 mL/min/g, a CLH [11] of 30.7 mL/min/g and a fraction unbound [12] of 0.014. It also gave a fraction unbound [13] of 0.003, a half-life [14] of 2.58 h and a half-life [15] of 7.51 h. For the same molecule, the Cmax [16] was 8.22 ng/mL, the AUC [17] was 173 h/ng/mL and the AUC [18] was 65.3 h/ng/mL. For the same molecule, the Vd [19] was 62.5 L/kg, the bioavailability [20] was 7.25% and the Activity [21] was “Non-Toxic”.

From ChEMBL document CHEMBL5154928, “Structure-Aided Design, Synthesis, and Biological Evaluation of Potent and Selective Non-Nucleoside Inhibitors Targeting Protein Arginine Methyltransferase 5” (J Med Chem, 2022)
